Reference: patent publication US20220389008A1, “4-QUINOLINONE ANTIBACTERIAL COMPOUNDS” (Janssen Sciences Ireland Unlimited Company, priority 2019, published 2022)
Like-named read-outs stand apart in the source and are kept apart here.

Experiments:
[1] = test system: Mitochondrial toxicity (Glu/Gal); assay: Mitochondrial toxicity (Glu/Gal) assay; format: cell-based; design: key to Score: “negative” means that in the test, it was found to have low mitotoxicity (and hence no mitotoxicity alerts); “positive” means that there were some mitotoxicity alerts; “inconclusive” means that no accurate conclusion could be drawn; conditions: for Score: mitotoxicity score; for Δ IC50,glu/IC50,gal: ratio glu/gal
Description: The compounds of the invention/examples may have advantages associated with in vitro potency, kill kinetics (i.e. bactericidal effect) in vitro, PK properties, food effect, safety/toxicity (including liver toxicity, coagulation, 5-LO oxygenase), metabolic stability, Ames II negativity, MNT negativity, aqueous based solubility (and ability to formulate) and/or cardiovascular effect e.g. on animals (e.g. anesthetized guinea pig). The data below that was generated/calculated may be obtained using standard methods/assays, for instance that are available in the literature or which may be performed by a supplier (e.g. Microsomal Stability Assay—Cyprotex, Mitochondrial toxicity (Glu/Gal) assay—Cyprotex, as well as literature CYP cocktail inhibition assays).

[2] = test system: Mycobacterium tuberculosis (strain H37Ra), cyt bd; conditions: Mtb H37Ra; for (i) % OCR after cyt bd inhibitor: test compound 10 μM added after Compound X 0.9 μM; for (ii) % OCR after cccp: test compound 10 μM after Compound X 0.9 μM, then CCCP 1 μM
[3] = test system: Mycobacterium tuberculosis strain H37Rv ΔctaE-ΔqcrCAB; assay: microbe, parasite or virus in culture; format: cell-based; conditions: 240 h
[4] = galactose medium, read-out: IC50, gal
[5] = glucose medium, read-out: IC50, glu

Cc1c(-c2nc3ccc(N4CCC(OC(F)(F)F)CC4)cn3n2)[nH]c2ccccc2c1=O [Compound 13]
IC50 [1, 4]: 141 µM
IC50 [1, 5]: 200 µM
Score [1]: negative
Δ IC50,glu/IC50,gal [1]: [x]1.42
(i) % OCR after cyt bd inhibitor [2]: 61.74%
(ii) % OCR after cccp [2]: 83.9%
IC50 [3]: 4.12 µM

Cc1c(-c2nc3ccc(N4CCN(CC(F)(F)F)CC4)cn3n2)[nH]c2ccccc2c1=O [Compound 16]
IC50 [1, 4]: 200 µM
IC50 [1, 5]: 200 µM
Score [1]: negative
Δ IC50,glu/IC50,gal [1]: [x]0
(i) % OCR after cyt bd inhibitor [2]: 80.34%
(ii) % OCR after cccp [2]: 95.29%
IC50 [3]: 1.17 µM

O=c1c(Br)c(-c2nc3ccc(-c4ccc(OC(F)(F)F)cc4)cn3n2)[nH]c2ccccc12 [Compound 41]
IC50 [1, 4]: 54.7 µM
IC50 [1, 5]: 53.9 µM
Score [1]: negative
Δ IC50,glu/IC50,gal [1]: [x]0.99
(i) % OCR after cyt bd inhibitor [2]: 84.09%
(ii) % OCR after cccp [2]: 137.15%
IC50 [3]: 33.9 µM

Cc1c(-c2nc3cc(C(F)(F)F)c(-c4ccccc4)cn3n2)[nH]c2ccccc2c1=O [Compound 21]
IC50 [1, 4]: 50 µM
IC50 [1, 5]: 50 µM
Score [1]: negative
Δ IC50,glu/IC50,gal [1]: [x]0
(i) % OCR after cyt bd inhibitor [2]: 81.6%
(ii) % OCR after cccp [2]: 103.4%
IC50 [3]: 11.4 µM

COc1cc(F)cc(-c2ccc3nc(-c4[nH]c5ccccc5c(=O)c4C)nn3c2)c1 [Compound 125]
IC50 [1, 4]: 200 µM
IC50 [1, 5]: 200 µM
Score [1]: negative
Δ IC50,glu/IC50,gal [1]: [x]0
(i) % OCR after cyt bd inhibitor [2]: 45,66%
(ii) % OCR after cccp [2]: 64,44%
IC50 [3]: 0.664 µM

Cc1c(-c2nc3cc(-c4cccc(OC(F)(F)F)c4)ccn3n2)[nH]c2ccccc2c1=O [Compound 28]
IC50 [1, 4]: 58.7 µM
IC50 [1, 5]: 100 µM
Score [1]: negative
Δ IC50,glu/IC50,gal [1]: [x]1.7
(i) % OCR after cyt bd inhibitor [2]: 123.3%
(ii) % OCR after cccp [2]: 117.7%
IC50 [3]: 10 µM

Cc1c(-c2cn3ccc(-c4ccc(OC(F)(F)F)cc4)cc3n2)[nH]c2ccccc2c1=O [Compound 42]
IC50 [1, 4]: 200 µM
IC50 [1, 5]: 200 µM
Score [1]: negative
(i) % OCR after cyt bd inhibitor [2]: 80.1%
(ii) % OCR after cccp [2]: 137.9%
IC50 [3]: 30.7 µM

Cc1c(-c2nc3ccc(OCC(F)(F)F)cn3n2)[nH]c2ccccc2c1=O [Compound 77]
IC50 [1, 4]: 200 µM
IC50 [1, 5]: 200 µM
Score [1]: negative
Δ IC50,glu/IC50,gal [1]: [x]0
(i) % OCR after cyt bd inhibitor [2]: 110.77%
(ii) % OCR after cccp [2]: 175.26%
IC50 [3]: 1.85 µM

COc1cc2[nH]c(-c3nc4ccc(Br)cn4n3)c(C)c(=O)c2cc1OC [Compound 73]
IC50 [1, 4]: 100 µM
IC50 [1, 5]: 100 µM
Score [1]: negative
Δ IC50,glu/IC50,gal [1]: [x]0
(i) % OCR after cyt bd inhibitor [2]: 105.2%
(ii) % OCR after cccp [2]: 171.2%
IC50 [3]: > 100 µM

Cc1c(-c2nc3ccc(-c4cnc(C(F)(F)F)s4)cn3n2)[nH]c2ccccc2c1=O [Compound 45]
IC50 [1, 4]: 20 µM
IC50 [1, 5]: 20 µM
Score [1]: negative
Δ IC50,glu/IC50,gal [1]: [x]0
(i) % OCR after cyt bd inhibitor [2]: 94.41%
(ii) % OCR after cccp [2]: 138.84%
IC50 [3]: 5.96 µM

COc1cc(OC)cc(-c2ccc3nc(-c4[nH]c5ccccc5c(=O)c4C)nn3c2)c1 [Compound 87]
IC50 [1, 4]: 5.16 µM
IC50 [1, 5]: 6.2 µM
Score [1]: inconclusive
Δ IC50,glu/IC50,gal [1]: [x]1.21
(i) % OCR after cyt bd inhibitor [2]: 33,23%
(ii) % OCR after cccp [2]: 38,98%
IC50 [3]: 0.548 µM

Cc1c(-c2nc3ccc(-c4nc(C(F)(F)F)no4)cn3n2)[nH]c2ccccc2c1=O [Compound 24]
IC50 [1, 4]: 20 µM
IC50 [1, 5]: 20 µM
Score [1]: negative
Δ IC50,glu/IC50,gal [1]: [x]0
(i) % OCR after cyt bd inhibitor [2]: 99.13%
(ii) % OCR after cccp [2]: 113.29%
IC50 [3]: 2.95 µM
